# Data reported in article PMC5719405, “Sex-related pharmacokinetic differences and mechanisms of metapristone (RU486 metabolite)” (Scientific Reports, 2017).
# Where two headings read alike, the source gives them in different places.
# Experiments:
# [1] = rats, 12.5, 50 and 200 mg/kg/day; only occurred at 200 mg/kg/day; cited from earlier work
# [2] = Single-dose pharmacokinetics of metapristone in rats (p.o. and i.v.), non-compartmental analysis; assay type: in vivo, Sprague Dawley (SD) rats; settings: for MRT last: read-out: MRT (0-t)
# Protocol: For pharmacokinetic study, rats were fasted overnight with free access to water using procedures reported previously. Ninety-six SD rats (forty-eight males and forty-eight females) were randomly divided into […] single-dose groups. Rats (six animals/sex/dose) were given a single oral dose of 22.5, 45 and 90 mg/kg metapristone (in soybean oil solution) by intragastric administration or 10 mg/kg metapristone by intravenous bolus injection. Rat blood samples (0.25 mL) were collected from the ocular vein into heparinized tubes prior to and at 0 (before administration), 0.5, 1.0, 1.5, 2.0, 4.0, 6.0, 8.0, 12, 24, 36 and 48 h post-dosing in female rats or 0.5, 1.0, 1.5, 2.0, 4.0, 6.0, 8.0, 12, 24, 30 and 36 h post-dosing in male rats. In the repeated dose study twenty-four rats (six animals/sex/dose) received the same dosing regimen at 45 mg/kg metapristone for 10 days. Blood samples were collected after oral administration on day 1 and 10 at T max. The samples were stored at −80 °C until analysis. Beagle dogs (three animals/sex/dose) were dosed by gavage at 5.62, 11.25, 22.5 mg/kg metapristone (in soybean oil solution). Dog blood (0.25 mL) was withdrawn from the jugular vein at 0.5, 1.0, 2.0, 4.0, 6.0, 8.0, 10, 12, 24 and 48 h after a single oral administration.
# The plasma samples obtained by centrifugation at 4000 g for 10 min and stored at −80 °Cuntil analysis. To each 100 µL of plasma sample, 50 µL of internal standard solution were added. Metapristone was then separated and analyzed by the LC/MS/MS method according to the previously described procedures. Peak area ratios of metapristone to the internal standard were plotted against theoretical concentrations. The maximum plasma concentration (C max), the time to reach C max (T max) were determined directly from experimental data. The other pharmacokinetic parameters such as elimination half-life (t 1/2), and mean residence time (MRT) were calculated by using the non-compartmental pharmacokinetics data analysis software of DAS version 3.2 (Bio Guider Co., Shanghai, China). The area under the plasma concentration-time curve from zero to infinity was calculated by using the linear trapezoidal rule with extrapolation to infinity with terminal constant eliminate rate (k e). Bioavailability was calculated as (AUCp.o./AUCi.v.) x (dosei.v./ dosep.o.) 100% as we previously described.
# [3] = Sprague-Dawley, rat, plasma, iv, female rats, i.v. 10 mg/kg
# [4] = Sprague-Dawley, rat, plasma, iv, male rats, i.v. 10 mg/kg
# [5] = Sprague-Dawley, rat, plasma, po, female rats, p.o. 22.5 mg/kg
# [6] = Sprague-Dawley, rat, plasma, po, female rats, p.o. 45 mg/kg
# [7] = Sprague-Dawley, rat, plasma, po, female rats, p.o. 90 mg/kg
# [8] = Sprague-Dawley, rat, plasma, po, male rats, p.o. 22.5 mg/kg
# [9] = Sprague-Dawley, rat, plasma, po, male rats, p.o. 45 mg/kg
# [10] = Sprague-Dawley, rat, plasma, po, male rats, p.o. 90 mg/kg
smiles,measurement,setting,value
"CC#C[C@]1(O)CC[C@H]2[C@@H]3CCC4=CC(=O)CCC4=C3[C@@H](c3ccc(NC)cc3)C[C@@]21C [metapristone, N-monodemethyl mifepristone]",hepatotoxicity after thirty-day oral administration,[1],reversible hepatotoxicity
same,AUC(0-inf),[2]; [3],9810 ± 2340 ng·h/mL
same,AUC(0-t),[2]; [3],9750 ± 2320 ng·h/mL
same,Cmax,[2]; [3],6050 ± 670 ng/mL
same,half-life,[2]; [3],5.18 ± 3.41 h
same,MRT last,[2]; [3],1.68 ± 0.72 h
same,AUC(0-inf),[2]; [4],5460 ± 1150 ng·h/mL
same,AUC(0-t),[2]; [4],5520 ± 1150 ng·h/mL
same,Cmax,[2]; [4],4050 ± 250 ng/mL
same,half-life,[2]; [4],9.45 ± 4.99 h
same,MRT last,[2]; [4],1.56 ± 0.41 h
same,AUC(0-inf),[2]; [5],4230 ± 1640 ng·h/mL
same,AUC(0-t),[2]; [5],4050 ± 1620 ng·h/mL
same,Cmax,[2]; [5],270 ± 50 ng/mL
same,half-life,[2]; [5],10.8 ± 3.2 h
same,bioavailability,"[2]; Sprague-Dawley, rat, plasma, po, female rats, p.o. 22.5 mg/kg, read-out: F",18.5%
same,MRT last,[2]; [5],14.4 ± 5.65 h
same,Tmax,"[2]; Sprague-Dawley, rat, plasma, po, female rats, p.o. 22.5 mg/kg, read-out: T max",9 ± 7.5 h
same,Vd/F,"[2]; Sprague-Dawley, rat, plasma, po, female rats, p.o. 22.5 mg/kg, read-out: V d /F",77.3 ± 36 L/kg
same,AUC(0-inf),[2]; [6],11300 ± 3170 ng·h/mL
same,AUC(0-t),[2]; [6],9630 ± 4540 ng·h/mL
same,Cmax,[2]; [6],650 ± 220 ng/mL
same,half-life,[2]; [6],10.7 ± 3.71 h
same,bioavailability,"[2]; Sprague-Dawley, rat, plasma, po, female rats, p.o. 45 mg/kg, read-out: F",22%
same,MRT last,[2]; [6],13.7 ± 6.91 h
same,Tmax,"[2]; Sprague-Dawley, rat, plasma, po, female rats, p.o. 45 mg/kg, read-out: T max",11 ± 12.3 h
same,Vd/F,"[2]; Sprague-Dawley, rat, plasma, po, female rats, p.o. 45 mg/kg, read-out: V d /F",67.6 ± 47.6 L/kg
same,AUC(0-inf),[2]; [7],15600 ± 2100 ng·h/mL
same,AUC(0-t),[2]; [7],14900 ± 2190 ng·h/mL
same,Cmax,[2]; [7],790 ± 200 ng/mL
same,half-life,[2]; [7],8.83 ± 7.3 h
same,bioavailability,"[2]; Sprague-Dawley, rat, plasma, po, female rats, p.o. 90 mg/kg, read-out: F",16.9%
same,MRT last,[2]; [7],15.6 ± 5.82 h
same,Tmax,"[2]; Sprague-Dawley, rat, plasma, po, female rats, p.o. 90 mg/kg, read-out: T max",7.58 ± 3.38 h
same,Vd/F,"[2]; Sprague-Dawley, rat, plasma, po, female rats, p.o. 90 mg/kg, read-out: V d /F",86.3 ± 62.9 L/kg
same,AUC(0-inf),[2]; [8],4470 ± 1110 ng·h/mL
same,AUC(0-t),[2]; [8],3570 ± 1090 ng·h/mL
same,Cmax,[2]; [8],30 ± 10 ng/mL
same,half-life,[2]; [8],8 ± 2.4 h
same,bioavailability,"[2]; Sprague-Dawley, rat, plasma, po, male rats, p.o. 22.5 mg/kg, read-out: F",28.7%
same,MRT last,[2]; [8],11.2 ± 2.12 h
same,Tmax,"[2]; Sprague-Dawley, rat, plasma, po, male rats, p.o. 22.5 mg/kg, read-out: T max",5.7 ± 2 h
same,Vd/F,"[2]; Sprague-Dawley, rat, plasma, po, male rats, p.o. 22.5 mg/kg, read-out: V d /F",804 ± 267 L/kg
same,AUC(0-inf),[2]; [9],2040 ± 1330 ng·h/mL
same,AUC(0-t),[2]; [9],1960 ± 1320 ng·h/mL
same,Cmax,[2]; [9],140 ± 100 ng/mL
same,half-life,[2]; [9],8.11 ± 4.31 h
same,bioavailability,"[2]; Sprague-Dawley, rat, plasma, po, male rats, p.o. 45 mg/kg, read-out: F",7.9%
same,MRT last,[2]; [9],13.9 ± 1.17 h
same,Tmax,"[2]; Sprague-Dawley, rat, plasma, po, male rats, p.o. 45 mg/kg, read-out: T max",7.7 ± 2.9 h
same,Vd/F,"[2]; Sprague-Dawley, rat, plasma, po, male rats, p.o. 45 mg/kg, read-out: V d /F",768 ± 127 L/kg
same,AUC(0-inf),[2]; [10],8920 ± 960 ng·h/mL
same,AUC(0-t),[2]; [10],8760 ± 70 ng·h/mL
same,Cmax,[2]; [10],550 ± 180 ng/mL
same,half-life,[2]; [10],4.62 ± 3 h
same,bioavailability,"[2]; Sprague-Dawley, rat, plasma, po, male rats, p.o. 90 mg/kg, read-out: F",17.6%
same,MRT last,[2]; [10],12.8 ± 2.43 h
same,Tmax,"[2]; Sprague-Dawley, rat, plasma, po, male rats, p.o. 90 mg/kg, read-out: T max",10.3 ± 2.7 h
same,Vd/F,"[2]; Sprague-Dawley, rat, plasma, po, male rats, p.o. 90 mg/kg, read-out: V d /F",92.5 ± 91.7 L/kg
same,bioavailability,"[2]; Sprague-Dawley, rat, plasma, male rats, range over three oral doses, read-out: Oral bioavailability",2.1 to 17.6%
same,Tmax,"[2]; Sprague-Dawley, rat, plasma, rats, both sexes, oral doses of Table 1, read-out: T max after oral absorption",5.7 to 11 h
same,CL/F,"[2]; female rats, i.v. 10 mg/kg",17.7 ± 4.17 mL/min/kg
same,Vd/F,"[2]; female rats, i.v. 10 mg/kg",8.02 ± 6.13 L/kg
same,CL/F,"[2]; female, Sprague-Dawley, rat, plasma, po, 22.5 mg/kg, female rats, p.o. 22.5 mg/kg, read-out: CL/F (converted)",117 mL/min/kg
same,CL/F,"[2]; female, Sprague-Dawley, rat, plasma, po, 45 mg/kg, female rats, p.o. 45 mg/kg, read-out: CL/F (converted)",87.5 mL/min/kg
same,CL/F,"[2]; female, Sprague-Dawley, rat, plasma, po, 90 mg/kg, female rats, p.o. 90 mg/kg, read-out: CL/F (converted)",80.8 mL/min/kg
same,decrease of CL/F for female rats versus male rats,[2]; i.v. 10 mg/kg,87%
same,CL/F,"[2]; male rats, i.v. 10 mg/kg",33 ± 6.5 mL/min/kg
same,Vd/F,"[2]; male rats, i.v. 10 mg/kg",24.34 ± 5.52 L/kg
same,CL/F,"[2]; male rats, p.o. 45 mg/kg, 45 mg/kg",782.2 ± 345 mL/min/kg
same,CL/F,"[2]; male, Sprague-Dawley, rat, plasma, po, 22.5 mg/kg, male rats, p.o. 22.5 mg/kg, read-out: CL/F (converted)",1160 mL/min/kg
same,CL/F,"[2]; male, Sprague-Dawley, rat, plasma, po, 45 mg/kg, male rats, p.o. 45 mg/kg, read-out: CL/F (converted)",782 mL/min/kg
same,CL/F,"[2]; male, Sprague-Dawley, rat, plasma, po, 90 mg/kg, male rats, p.o. 90 mg/kg, read-out: CL/F (converted)",196 mL/min/kg
same,increase of C max for female rats versus male rats,[2]; p.o. 45 mg/kg,364%
